From US12091411B2, “IRAK degraders and uses thereof” (Kymera Therapeutics, Inc., priority 2022, dated 2024)
Read-outs that look alike come from different tables or passages of the source.

Molecular target: T1, IRAK4 (Homo sapiens, UniProt Q9NWZ3)
T1 construct: Degradation of IRAK4 in OCI-LY10 was quantitatively measured using Meso Scale Discovery technology; endogenous in cells; host or cells: OCI-LY10
T1 sequence (Q9NWZ3 1-460): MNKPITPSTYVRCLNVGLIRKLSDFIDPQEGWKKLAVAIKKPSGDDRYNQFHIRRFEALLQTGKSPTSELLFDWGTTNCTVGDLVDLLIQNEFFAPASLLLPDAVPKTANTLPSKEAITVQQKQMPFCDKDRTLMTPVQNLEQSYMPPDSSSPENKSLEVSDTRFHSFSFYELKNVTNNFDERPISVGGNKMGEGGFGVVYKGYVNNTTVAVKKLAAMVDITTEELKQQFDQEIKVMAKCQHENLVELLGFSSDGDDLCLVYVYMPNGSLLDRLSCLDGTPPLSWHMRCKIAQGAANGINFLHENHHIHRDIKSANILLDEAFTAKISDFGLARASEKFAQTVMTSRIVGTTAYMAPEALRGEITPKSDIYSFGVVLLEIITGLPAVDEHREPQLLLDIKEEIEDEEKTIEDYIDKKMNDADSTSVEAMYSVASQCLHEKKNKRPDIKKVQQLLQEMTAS
Assay: IRAK4 MSD Degradation in OCI-LY10
Format: cell-based
Conditions: OCI-LY10 cells, MSD
Outline: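 OCI-LY10 cells exposed to 8-point 1:3 compound series (top 1 to 10 μM) for 4 to 24 h at 37 °C, 5% CO2. Lysate IRAK4 quantified by MSD sandwich immunoassay. DC50 from three-parameter logistic fit, binned A (<0.01 μM) to D (>0.2 μM or not tested).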

[1] = 4 hrs incubation, read-out: IRAK4 degradation in OCI-LY10 at 4 hrs: DC50
[2] = 24 hrs incubation, read-out: IRAK4 degradation in OCI-LY10 at 24 hrs: DC50

DC50 [1] [µM]	DC50 [2] [µM]	SMILES
< 0.01	> 0.2	Cn1c(=O)n(C2CCC(=O)NC2=O)c2cccc(C#CCN3CCN(C[C@H]4CC[C@H](n5cc(NC(=O)c6cnn7ccc(N8CCOC(C)(C)C8)nc67)c(C(F)F)n5)CC4)CC3)c21 (some centres unmarked) [I-111]
> 0.2	< 0.01	Cc1ccc(-c2nn([C@H]3CC[C@H](CN4CCN(CC#Cc5cccc6c5n(C)c(=O)n6C5CCC(=O)NC5=O)CC4)CC3)cc2NC(=O)c2cnn3cccnc23)nc1 (some centres unmarked) [I-113]
> 0.2	0.01 to 0.1	Cc1ccc(-c2nn([C@H]3CC[C@H](CN4CCN(CC#Cc5cccc6c5n(C)c(=O)n6C5CCC(=O)NC5=O)CC4)CC3)cc2NC(=O)c2cnn3cccnc23)c(F)c1 (some centres unmarked) [I-116]
> 0.2	0.01 to 0.1	Cc1ccc(-c2nn([C@H]3CC[C@H](CN4CCN(CC#Cc5cccc6c5n(C)c(=O)n6C5CCC(=O)NC5=O)CC4)CC3)cc2NC(=O)c2cnn3cccnc23)cc1 (some centres unmarked) [I-118]
> 0.2	> 0.2	C[C@@H]1CN(CCCc2cccc3c2n(C)c(=O)n3C2CCC(=O)NC2=O)CCN1C[C@H]1CC[C@H](n2cc(NC(=O)c3cnn4ccc(N5C[C@H]6C[C@@H]5CO6)nc34)c(C(F)F)n2)CC1 (some centres unmarked) [I-119]
> 0.2	> 0.2	C[C@H]1CN(CCCc2cccc3c2n(C)c(=O)n3C2CCC(=O)NC2=O)CCN1C[C@H]1CC[C@H](n2cc(NC(=O)c3cnn4ccc(N5C[C@H]6C[C@@H]5CO6)nc34)c(C(F)F)n2)CC1 (some centres unmarked) [I-120]
0.1 to 0.2	> 0.2	COc1nn([C@H]2CC[C@H](CN3CCN(CC#Cc4cccc5c4n(C)c(=O)n5C4CCC(=O)NC4=O)CC3)CC2)cc1NC(=O)c1cnn2ccc(N3C[C@H]4C[C@@H]3CO4)nc12 (some centres unmarked) [I-121]
> 0.2	0.01 to 0.1	Cc1ccc(-c2nn([C@H]3CC[C@H](CN4CCN(CC#Cc5cccc6c5n(C)c(=O)n6C5CCC(=O)NC5=O)CC4)CC3)cc2NC(=O)c2cnn3cccnc23)nc1 (some centres unmarked) [I-122]
> 0.2	> 0.2	O=C1CCN(c2cccc(C#CCN3CCN(C[C@H]4CC[C@H](n5cc(NC(=O)c6cnn7ccc(N8C[C@H]9C[C@@H]8CO9)nc67)c(C(F)F)n5)CC4)CC3)c2)C(=O)N1 [I-123]
> 0.2	> 0.2	O=C1CCN(c2ccc(C#CCN3CCN(C[C@H]4CC[C@@H](n5cc(NC(=O)c6cnn7ccc(N8C[C@@H]9C[C@H]8CO9)nc67)c(C(F)F)n5)CC4)CC3)cc2)C(=O)N1 [I-124]
> 0.2	> 0.2	O=C1CCC(c2cccc(C#CCN3CCN(C[C@H]4CC[C@@H](n5cc(NC(=O)c6cnn7ccc(N8C[C@@H]9C[C@H]8CO9)nc67)c(C(F)F)n5)CC4)CC3)c2)C(=O)N1 (some centres unmarked) [I-125]
> 0.2	> 0.2	O=C1CCC(c2ccc(C#CCN3CCN(C[C@H]4CC[C@@H](n5cc(NC(=O)c6cnn7ccc(N8C[C@@H]9C[C@H]8CO9)nc67)c(C(F)F)n5)CC4)CC3)cc2)C(=O)N1 (some centres unmarked) [I-126]
0.1 to 0.2	> 0.2	Cn1c(=O)n(C2CCC(=O)NC2=O)c2cccc(C#CCO[C@@H]3CCCN(C[C@H]4CC[C@H](n5cc(NC(=O)c6cnn7ccc(N8C[C@H]9C[C@@H]8CO9)nc67)c(C(F)F)n5)CC4)C3)c21 (some centres unmarked) [I-127]

More lines, now with the values behind:

SMILES	DC50 [1] [µM]	DC50 [2] [µM]
COc1cc2nn([C@H]3CC[C@H](CN4CCC5(CC4)CCN(c4cccc6c4n(C)c(=O)n6C4CCC(=O)NC4=O)CC5)CC3)cc2cc1NC(=O)c1cncc(F)c1 (some centres unmarked) [I-83]	> 0.2	> 0.2
COc1cc2nn([C@H]3CC[C@H](CN4CCC5(CC4)CCN(c4c(C)ccc6c4n(C)c(=O)n6C4CCC(=O)NC4=O)CC5)CC3)cc2cc1NC(=O)c1cncc(C#N)c1 (some centres unmarked) [I-84]	> 0.2	> 0.2
COc1cc2nn([C@H]3CC[C@H](CN4CCC5(CC4)CCN(c4cccc(N6CCC(=O)NC6=O)c4)CC5)CC3)cc2cc1NC(=O)c1cncc(C#N)c1 [I-85]	> 0.2	> 0.2
COc1cncc(C(=O)Nc2cc3cn([C@H]4CC[C@H](CN5CCC6(CC5)CCN(c5cccc7c5n(C)c(=O)n7C5CCC(=O)NC5=O)CC6)CC4)nc3cc2OC)c1 (some centres unmarked) [I-86]	> 0.2	> 0.2
COc1cc2nn([C@H]3CC[C@H](CN4CCC5(CC4)CCN(c4c(OC)ccc6c4n(C)c(=O)n6C4CCC(=O)NC4=O)CC5)CC3)cc2cc1NC(=O)c1cncc(C#N)c1 (some centres unmarked) [I-87]	< 0.01	< 0.01
COc1cc2nn([C@H]3CC[C@H](CN4CCC5(CC4)CCN(c4ccc(C6CCC(=O)NC6=O)cc4)CC5)CC3)cc2cc1NC(=O)c1cncc(C#N)c1 (some centres unmarked) [I-88]	0.01 to 0.1	> 0.2
COc1cc2nn([C@H]3CC[C@H](CN4CCC5(CC4)CCN(c4cccc6c4n(C)c(=O)n6C4CCC(=O)NC4=O)CC5)CC3)cc2cc1NC(=O)c1cncc(C)c1 (some centres unmarked) [I-89]	> 0.2	> 0.2
COc1cc2nn([C@H]3CC[C@H](CN4CCC5(CC4)CCN(c4cccc6c(N7CCC(=O)NC7=O)cncc46)CC5)CC3)cc2cc1NC(=O)c1cncc(C#N)c1 [I-90]	> 0.2	> 0.2
COc1cc2nn([C@H]3CC[C@H](CN4CCC5(CC4)CCN(c4cccc(C6CCC(=O)NC6=O)c4)CC5)CC3)cc2cc1NC(=O)c1cncc(C#N)c1 (some centres unmarked) [I-91]	> 0.2	0.1 to 0.2
COc1cc2nn([C@H]3CC[C@H](CN4CCC5(CC4)CCN(c4cccc6c4n(C)c(=O)n6C4CCC(=O)NC4=O)CC5)CC3)cc2cc1NC(=O)c1cncc(C(F)(F)F)c1 (some centres unmarked) [I-92]	> 0.2	> 0.2
COc1cc2nn([C@H]3CC[C@H](CN4CCC5(CC4)CCN(c4cccc6c(N7CCC(=O)NC7=O)cccc46)CC5)CC3)cc2cc1NC(=O)c1cncc(C#N)c1 [I-93]	0.01 to 0.1	0.01 to 0.1
COc1cc2nc([C@H]3CC[C@H](CN4CCC5(CC4)CCN(c4cccc6c4n(C)c(=O)n6C4CCC(=O)NC4=O)CC5)CC3)sc2cc1NC(=O)c1cncc(C#N)c1 (some centres unmarked) [I-94]	> 0.2	> 0.2
COc1cc2nn([C@H]3CC[C@H](CN4CCC5(CC4)CCN(c4c(F)ccc6c4n(C)c(=O)n6C4CCC(=O)NC4=O)CC5)CC3)cc2cc1NC(=O)c1cncc(C#N)c1 (some centres unmarked) [I-95]	> 0.2	> 0.2
COc1cc2nn([C@H]3CC[C@H](CN4CCC5(CC4)CCN(c4ccc(N6CCC(=O)NC6=O)cc4)CC5)CC3)cc2cc1NC(=O)c1cncc(C#N)c1 [I-96]	> 0.2	> 0.2
Cn1c(=O)n(C2CCC(=O)NC2=O)c2cccc(N3CCC4(CCN(C[C@H]5CC[C@H](c6nc7cc(C(C)(C)O)c(NC(=O)c8cncc(C#N)c8)cc7s6)CC5)CC4)CC3)c21 (some centres unmarked) [I-97]	< 0.01	> 0.2
Cn1c(=O)n(C2CCC(=O)NC2=O)c2cccc(C#CCN3CCN(C[C@H]4CC[C@H](n5cc(NC(=O)c6cnn7ccc(N8CCOCC8)nc67)c(C(F)F)n5)CC4)CC3)c21 (some centres unmarked) [I-98]	< 0.01	> 0.2
COc1ccn2ncc(C(=O)Nc3cn([C@H]4CC[C@H](CN5CCN(CC#Cc6cccc7c6n(C)c(=O)n7C6CCC(=O)NC6=O)CC5)CC4)nc3C(F)F)c2n1 (some centres unmarked) [I-99]	0.01 to 0.1	> 0.2
Cn1c(=O)n(C2CCC(=O)NC2=O)c2cccc(C#CCN3CCN(C[C@H]4CC[C@H](n5cc(NC(=O)c6cnn7ccc(N8CCCCC8)nc67)c(C(F)F)n5)CC4)CC3)c21 (some centres unmarked) [I-100]	0.01 to 0.1	> 0.2
CN(C)c1ccn2ncc(C(=O)Nc3cn([C@H]4CC[C@H](CN5CCN(CC#Cc6cccc7c6n(C)c(=O)n7C6CCC(=O)NC6=O)CC5)CC4)nc3C(F)F)c2n1 (some centres unmarked) [I-101]	< 0.01	> 0.2
Cc1ccn2ncc(C(=O)Nc3cn([C@H]4CC[C@H](CN5CCN(CC#Cc6cccc7c6n(C)c(=O)n7C6CCC(=O)NC6=O)CC5)CC4)nc3C(F)F)c2n1 (some centres unmarked) [I-102]	0.01 to 0.1	> 0.2
Cn1c(=O)n(C2CCC(=O)NC2=O)c2cccc(C#CCN3CCN(C[C@H]4CC[C@H](n5cc(NC(=O)c6cnn7ccc(N8CCCC8)nc67)c(C(F)F)n5)CC4)CC3)c21 (some centres unmarked) [I-103]	< 0.01	> 0.2
CC(C)c1ccn2ncc(C(=O)Nc3cn([C@H]4CC[C@H](CN5CCN(CC#Cc6cccc7c6n(C)c(=O)n7C6CCC(=O)NC6=O)CC5)CC4)nc3C(F)F)c2n1 (some centres unmarked) [I-104]	0.01 to 0.1	> 0.2
Cn1c(=O)n(C2CCC(=O)NC2=O)c2cccc(C#CCN3CCN(C[C@H]4CC[C@H](n5cc(NC(=O)c6cnn7ccc(C8C[C@H]9C[C@@H]8CO9)nc67)c(C(F)F)n5)CC4)CC3)c21 (some centres unmarked) [I-105]	> 0.2	> 0.2
Cn1c(=O)n(C2CCC(=O)NC2=O)c2cccc(C#CCN3CCN(C[C@H]4CC[C@H](n5cc(NC(=O)c6cnn7ccc(N8CCC8)nc67)c(C(F)F)n5)CC4)CC3)c21 (some centres unmarked) [I-106]	< 0.01	> 0.2
Cn1c(=O)n(C2CCC(=O)NC2=O)c2cccc(C#CCN3CCN(CC4CCC(n5cc(NC(=O)c6cnn7ccc(N8CC9CC8CO9)nc67)c(C(F)F)n5)CC4)CC3)c21 (centres unmarked) [I-108]	> 0.2	> 0.2
Cn1c(=O)n(C2CCC(=O)NC2=O)c2cccc(C#CCN3CCN(C[C@H]4CC[C@H](n5cc(NC(=O)c6cnn7ccc(C8CCC8)nc67)c(C(F)F)n5)CC4)CC3)c21 (some centres unmarked) [I-109]	0.01 to 0.1	> 0.2
CCc1ccn2ncc(C(=O)Nc3cn([C@H]4CC[C@H](CN5CCN(CC#Cc6cccc7c6n(C)c(=O)n7C6CCC(=O)NC6=O)CC5)CC4)nc3C(F)F)c2n1 (some centres unmarked) [I-110]	0.01 to 0.1	0.01 to 0.1
